Measured values: patent US11912693B2, “Compounds for modulating S1P1 activity and methods of using the same” (TREVENA, INC., priority 2017, dated 2024)

Legend:
[1] = target: T1, human sphingosine-1-phosphate receptor 1 (S1P1) (Homo sapiens (Human), UniProt P21453); test: Inhibition of cAMP production (HTRF cAMP HiRange), S1P1 CHO-K1 cells; assay type: cell-based; settings: for Emax: CHO-K1, efficacy (SPAN) normalized to fingolimod, read-out: hS1P1 cAMP SPAN
In short: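 CHO-K1 cells stably co-expressing human S1P1 (C-terminal Prolink tag) and EA-β-arrestin2 were grown in AssayComplete Media 6 at 37° C. and 5% CO2, plated, and incubated overnight. Agonist-driven inhibition of intracellular cAMP was read by TR-FRET with the HTRF cAMP HiRange kit on a PheraStar reader. Potency is pEC50, and efficacy (SPAN) is normalized to fingolimod.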
Target sequence in this assay (P21453 whole entry, looked up): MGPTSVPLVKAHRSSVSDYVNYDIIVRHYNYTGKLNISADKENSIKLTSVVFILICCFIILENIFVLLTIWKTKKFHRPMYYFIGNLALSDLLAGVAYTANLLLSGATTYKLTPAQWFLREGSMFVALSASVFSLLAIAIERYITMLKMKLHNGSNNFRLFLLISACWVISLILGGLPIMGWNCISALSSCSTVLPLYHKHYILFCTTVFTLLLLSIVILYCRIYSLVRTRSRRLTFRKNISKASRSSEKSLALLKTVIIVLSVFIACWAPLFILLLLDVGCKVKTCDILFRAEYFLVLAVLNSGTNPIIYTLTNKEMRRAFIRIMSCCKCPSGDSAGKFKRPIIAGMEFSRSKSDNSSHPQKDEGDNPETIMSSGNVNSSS

[2] = target: T1, human sphingosine-1-phosphate receptor 1 (S1P1); test: β-Arrestin2 recruitment assay (PathHunter), S1P1 CHO-K1 cells; assay type: cell-based; settings: for Emax: CHO-K1, efficacy (SPAN) normalized to fingolimod, read-out: hS1P1 B-arrestin2 SPAN
In short: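 Enzyme-fragment complementation read-out: agonist-driven β-arrestin2 binding to ProLink-tagged human S1P1 in stable CHO-K1 cells restores β-galactosidase, measured 1 h at room temperature after a 60 min 37° C. compound incubation. Potency as pEC50, efficacy relative to fingolimod (SPAN).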
Target sequence in this assay (P21453 whole entry, looked up): as above
Target sequence in this assay (P32121 whole entry partner, looked up): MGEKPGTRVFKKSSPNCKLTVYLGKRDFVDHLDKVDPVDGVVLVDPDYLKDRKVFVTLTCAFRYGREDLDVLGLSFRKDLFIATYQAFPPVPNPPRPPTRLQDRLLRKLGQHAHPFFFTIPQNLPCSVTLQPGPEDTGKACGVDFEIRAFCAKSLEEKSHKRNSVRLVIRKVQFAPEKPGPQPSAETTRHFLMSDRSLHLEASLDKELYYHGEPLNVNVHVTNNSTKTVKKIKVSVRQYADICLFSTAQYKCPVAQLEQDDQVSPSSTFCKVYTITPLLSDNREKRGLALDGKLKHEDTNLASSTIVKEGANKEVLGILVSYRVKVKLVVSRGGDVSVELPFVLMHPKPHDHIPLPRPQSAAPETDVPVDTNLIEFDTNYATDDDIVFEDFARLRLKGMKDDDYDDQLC

[3] = inhibition of cAMP production, S1P1 CHO-K1 cells
[4] = β-arrestin2 recruitment, S1P1 CHO-K1 cells

Emax [1] | hS1P1 cAMP pEC50 [1, 3] | Emax [2] | hS1P1 B-arrestin2 pEC50 [2, 4] | EC50 ([1]; inhibition of cAMP production, S1P1 CHO-K1 cells, read-out: hS1P1 cAMP pEC50 (converted)) | EC50 ([2]; β-arrestin2 recruitment, S1P1 CHO-K1 cells, read-out: hS1P1 B-arrestin2 pEC50 (converted)) | SMILES
> 75% | <6.5 | > 75% | >5 |  |  | COc1ccc(-c2nc(-c3ccc4c(c3)nnn4C(C)C)no2)c(C)c1 [Compound 90, 3-(1-isopropyl-1H-benzo[d][1,2,3]triazol-5-yl)-5-(4-methoxy-2-methylphenyl)-1,2,4-oxadiazole]
< 75% |  | < 75% |  | > 316 nM | > 10 µM | c1ccc(Cc2noc(-c3ccc4c(c3)nnn4C3CCCC3)n2)cc1 [Compound 92, 5-(3-benzyl-1,2,4-oxadiazol-5-yl)-1-cyclopentyl-1H-1,2,3-benzotriazole]
> 75% | <6.5 | > 75% | <5 |  |  | Cc1ccncc1-c1noc(-c2ccc3c(c2)nnn3C2CC2)n1 [Compound 94, 1-cyclopropyl-5-[3-(4-methylpyridin-3-yl)-1,2,4-oxadiazol-5-yl]-1H-1,2,3-benzotriazole]
> 75% | <6.5 | > 75% | >5 |  |  | Brc1ccccc1-c1nc(-c2ccc3c(c2)nnn3CC2CC2)no1 [Compound 98, 5-(2-bromophenyl)-3-(1-(cyclopropylmethyl)-1H-benzo[d][1,2,3]triazol-5-yl)-1,2,4-oxadiazole]
< 75% | <6.5 | < 75% | <5 |  |  | CCC1(CC)CC(=O)c2cc(-c3nc(-c4ccc(O)nc4)no3)ccc2O1 [Compound 105, 2,2-diethyl-6-[3-(6-hydroxy-3-pyridyl)-1,2,4-oxadiazol-5-yl]chroman-4-one]
< 75% | >6.5 | < 75% | <5 |  |  | COc1cccc(-c2cnc(-c3ccc4c(c3)nnn4C(C)C)s2)c1 [Compound 108, 2-(1-isopropyl-1H-benzo[d][1,2,3]triazol-5-yl)-5-(3-methoxyphenyl)thiazole]
< 75% | <6.5 | < 75% | >5 |  |  | COc1ccc(-c2cnc(-c3ccc4c(c3)nnn4C(C)C)s2)cc1 [Compound 109, 2-(1-isopropyl-1H-benzo[d][1,2,3]triazol-5-yl)-5-(4-methoxyphenyl)thiazole]
< 75% | <6.5 | < 75% | <5 |  |  | CC(C)n1nnc2cc(-c3ncc(-c4cccc(F)c4)s3)ccc21 [Compound 110, 5-(3-fluorophenyl)-2-(1-isopropyl-1H-benzo[d][1,2,3]triazol-5-yl)thiazole]
> 75% | >6.5 | > 75% | >5 |  |  | COc1ccccc1-c1nc(-c2ccc3c(c2)nnn3C2CCCC2)no1 [Compound 120, 3-(1-cyclopentyl-1H-benzo[d][1,2,3]triazol-5-yl)-5-(2-methoxyphenyl)-1,2,4-oxadiazole]
< 75% | <6.5 | < 75% | <5 |  |  | CC(C)Oc1ccc(-c2nc(-c3ccc4c(c3)nnn4C3CCCC3)no2)cc1 [Compound 121, 3-(1-cyclopentyl-1H-benzo[d][1,2,3]triazol-5-yl)-5-(4-isopropoxyphenyl)-1,2,4-oxadiazole]

The next lines start with the compound.

SMILES | Emax [1] | hS1P1 cAMP pEC50 [1, 3] | Emax [2] | hS1P1 B-arrestin2 pEC50 [2, 4] | EC50 ([1]; inhibition of cAMP production, S1P1 CHO-K1 cells, read-out: hS1P1 cAMP pEC50 (converted)) | EC50 ([2]; β-arrestin2 recruitment, S1P1 CHO-K1 cells, read-out: hS1P1 B-arrestin2 pEC50 (converted))
Cc1ccc(-c2noc(-c3ccc4c(c3)nnn4C3CC3)n2)cn1 [Compound 87, 1-cyclopropyl-5-[3-(6-methylpyridin-3-yl)-1,2,4-oxadiazol-5-yl]-1H-1,2,3-benzotriazole] | < 75% | <6.5 | < 75% | <5 |  | 
CC(C)n1nnc2cc(-c3nc(Cc4ccccc4)no3)ccc21 [Compound 88, 5-(3-benzyl-1,2,4-oxadiazol-5-yl)-1-(propan-2-yl)-1H-1,2,3-benzotriazole] | < 75% | <6.5 | < 75% | <5 |  | 
CC(C)n1nnc2cc(-c3noc(C4CCOCC4)n3)ccc21 [Compound 89, 5-[5-(oxan-4-yl)-1,2,4-oxadiazol-3-yl]-1-(propan-2-yl)-1H-1,2,3-benzotriazole] | < 75% | <6.5 | < 75% | <5 |  | 
COc1ccc(-c2noc(-c3ccc4c(c3)nnn4C3CCCC3)n2)c2ccccc12 [Compound 91, 1-cyclopentyl-5-[3-(4-methoxynaphthalen-1-yl)-1,2,4-oxadiazol-5-yl]-1H-1,2,3-benzotriazole] | < 75% | <6.5 | < 75% | <5 |  | 
Cc1ccccc1-c1noc(-c2ccc3c(c2)nnn3C2CCOCC2)n1 [Compound 95, 5-[3-(2-methylphenyl)-1,2,4-oxadiazol-5-yl]-1-(oxan-4-yl)-1H-1,2,3-benzotriazole] | < 75% | <6.5 | < 75% | <5 |  | 
Brc1ccccc1-c1nc(-c2ccc3[nH]nnc3c2)no1 [Compound 97, 3-(1H-benzo[d][1,2,3]triazol-5-yl)-5-(2-bromophenyl)-1,2,4-oxadiazole] | < 75% | <6.5 | < 75% | <5 |  | 
Cc1ccncc1-c1nc(-c2ccc3c(c2)nnn3C(C)C)no1 [Compound 100, 3-(1-isopropyl-1H-benzo[d][1,2,3]triazol-5-yl)-5-(4-methylpyridin-3-yl)-1,2,4-oxadiazole] | < 75% | <6.5 | < 75% | <5 |  | 
Cc1ccncc1-c1noc(-c2ccc3c(c2)nnn3C(C)C)n1 [Compound 101, 5-[3-(4-methylpyridin-3-yl)-1,2,4-oxadiazol-5-yl]-1-(propan-2-yl)-1H-1,2,3-benzotriazole] | > 75% | >6.5 | > 75% | >5 |  | 
O=C1CCOc2ccc(-c3nc(-c4cccnc4)no3)cc21 [Compound 102, 6-[3-(pyridin-3-yl)-1,2,4-oxadiazol-5-yl]-3,4-dihydro-2H-1-benzopyran-4-one] | < 75% | <6.5 | < 75% | <5 |  | 
CCC1(CC)CC(=O)c2cc(-c3nnc(-c4cccnc4)s3)ccc2O1 [Compound 104, 2,2-diethyl-6-(5-(pyridin-3-yl)-1,3,4-thiadiazol-2-yl)chroman-4-one] | > 75% | >6.5 | > 75% | <5 |  | 
CCC1(CC)CC(=O)c2cc(-c3nc(-c4ccccn4)no3)ccc2O1 [Compound 111, 2,2-diethyl-6-[3-(2-pyridyl)-1,2,4-oxadiazol-5-yl]chroman-4-one] | > 75% | <6.5 | > 75% | <5 |  | 
CC(C)n1nnc2cc(-c3nsc(-c4ccccc4O)n3)ccc21 [Compound 112, 2-{3-[1-(propan-2-yl)-1H-1,2,3-benzotriazol-5-yl]-1,2,4-thiadiazol-5-yl}phenol] |  | >6.5 |  | >5 |  | 
c1ccc(-c2noc(-c3ccc4[nH]nnc4c3)n2)cc1 [Compound 113, 5-(3-phenyl-1,2,4-oxadiazol-5-yl)-1H-1,2,3-benzotriazole] |  | <6.5 |  | <5 |  | 
FC(F)(F)c1cc(Br)ccc1-c1noc(-c2ccc3c(c2)nnn3C2CCCC2)n1 [Compound 114, 5-{3-[4-bromo-2-(trifluoromethyl)phenyl]-1,2,4-oxadiazol-5-yl}-1-cyclopentyl-1H-1,2,3-benzotriazole] | < 75% | <6.5 | < 75% | <5 |  | 
Brc1ccccc1-c1nc(-c2ccc3c(c2)nnn3C2CCCCC2)no1 [Compound 115, 5-(2-bromophenyl)-3-(1-cyclohexyl-1H-benzo[d][1,2,3]triazol-5-yl)-1,2,4-oxadiazole] | > 75% | >6.5 | > 75% | >5 |  | 
COc1cc(-c2nc(-c3ccc4c(c3)nnn4C(C)C)no2)ccn1 [Compound 116, 3-(1-isopropyl-1H-benzo[d][1,2,3]triazol-5-yl)-5-(2-methoxypyridin-4-yl)-1,2,4-oxadiazole] | < 75% | <6.5 | < 75% | <5 |  | 
Cc1ccc(-c2noc(-c3ccc4c(c3)nnn4C3CCCCC3)n2)cc1 [Compound 117, 1-cyclohexyl-5-[3-(4-methylphenyl)-1,2,4-oxadiazol-5-yl]-1H-1,2,3-benzotriazole] | < 75% | <6.5 | < 75% | <5 |  | 
FC(F)(F)c1cccc(-c2noc(-c3ccc4c(c3)nnn4C3CCCC3)n2)c1 [Compound 118, 1-cyclopentyl-5-{3-[3-(trifluoromethyl)phenyl]-1,2,4-oxadiazol-5-yl}-1H-1,2,3-benzotriazole] |  | <6.5 |  | <5 |  | 
Cc1ccc(-c2nc(-c3ccc4c(c3)nnn4C(C)C)no2)cn1 [Compound 119, 3-(1-isopropyl-1H-benzo[d][1,2,3]triazol-5-yl)-5-(6-methylpyridin-3-yl)-1,2,4-oxadiazole] | < 75% | <6.5 | < 75% | <5 |  | 
